Data on two compounds can be found in PMC12508057, “Discovery of ETI41 and ETI60: novel selective endosomal Toll-like receptor inhibitors for the treatment of autoimmune diseases” (Experimental & Molecular Medicine, 2025).

Holding throughout (format): cell-based
One series concerns TLR9. Kind of series: FACS analysis of FAM-labeled CpG-ODN uptake and retention. The conditions noted are these: for Endocytosis of CpG ODNs: 30-min treatment with labeled CpG ODNs. The procedure: RAW 264.7 cells were seeded into 60-mm dishes at 2 × 10^6 cells per dish. After 30 min of treatment with ETI41 or ETI60, cells were incubated with 1 μM of 3’-FAM-labeled ODN 2395 (Bioneer Inc.) for 30 min. Fluorescence intensity was measured using a NovoCyte Flow Cytometer (Agilent Technologies) and analyzed using NovoExpress software.
Fig. 3 Binding mechanism of ETI41 and ETI60 with TLR7 and TLR9. a ETI41 and ETI60 bind to the extracellular domain of TLR7. b Detailed intermolecular interactions ofETI41 and ETI60 are shown with the key residues of TLR7. c ETI41 and ETI60 bind to the extracellular domain of TLR9. d Intermolecular interactions of ETI41 and ETI60 with the key residues of TLR9. The asterisk indicates chain A of TLR7 and TLR9. ETI41 and ETI60 are depicted in ball-and-stick models. Bonds are represented by lines, with distances measured in ångström (Å) units. […] Data presented are from three independent experiments (n = 3), and statistical differences between the induced case and other cases were analyzed and verified using a one-tailed Student’s t-test (*P < 0.05, **P < 0.01, ***P < 0.001). TEXT PRINTED IN THE PICTURE: (f) ETI41: ODN-Fm (30min): Q3-1 0.00%; ODN-Fm (30min): Q3-2 0.00%; ODN-Fm (30min): Q3-3 10.75%; ODN-Fm (30min): Q3-4 89.25%; ODN-Fm (30min) → Washing → Incubation (1h): Q3-1 0.00%; ODN-Fm (30min) → Washing → Incubation (1h): Q3-2 0.00%; ODN-Fm (30min) → Washing → Incubation (1h): Q3-3 40.96%; ODN-Fm (30min) → Washing → Incubation (1h): Q3-4 59.04% | (f) ETI60: ODN-Fm (30min): Q3-1 0.00%; ODN-Fm (30min): Q3-2 0.00%; ODN-Fm (30min): Q3-3 12.80%; ODN-Fm (30min): Q3-4 87.20%; ODN-Fm (30min) → Washing → Incubation (1h): Q3-1 0.00%; ODN-Fm (30min) → Washing → Incubation (1h): Q3-2 0.00%; ODN-Fm (30min) → Washing → Incubation (1h): Q3-3 56.37%; ODN-Fm (30min) → Washing → Incubation (1h): Q3-4 43.63% DOUBTS OF THE COPYIST ABOUT THIS PICTURE: Panel f, very small print: the digits 3, 5, 6, 8 and 9 cannot be told apart with certainty in any quadrant percentage. / ETI41, ODN-Fm (30min): Q3-3 10.75% and Q3-4 89.25% are best readings / ETI60, ODN-Fm (30min): Q3-3 12.80% and Q3-4 87.20% are best readings / ETI41, Washing/Incubation (1h): Q3-3 40.96% and Q3-4 59.04% are best readings / ETI60, Washing/Incubation (1h): Q3-3 56.37% and Q3-4 43.63% are best readings / Panel f: the control plots ('Con' and '-') also print quadrant percentages. They are left out because they are not substance results.
FACS analysis further validated the binding of ETI41 and ETI60. Unmethylated CpG ODNs, acting as ligands for TLR9, were fluorescently labeled, and their cellular penetration was monitored.
A general note: A flow cytometer gives signals particle by particle.

In the next series the target is T1, TLR5 (Homo sapiens, UniProt O60602).
T1 construct: in differentiated human THP-1 cells; endogenous in cells; host or cells: differentiated THP-1
Kind of series: Surface TLR specificity, TNF-α secretion in differentiated THP-1. The conditions noted are these: 2 and 5 μM, differentiated THP-1, FLA-ST. The procedure: (§1) RAW 264.7 and differentiated THP-1 cells were seeded into 96-well plates at 2 × 10^4 cells per well, while Daudi cells were seeded at 5 × 10^4 cells per well. After stabilization for 30 min, cells were stimulated with specific TLR agonists for 4 or 24 h. Supernatants were diluted and transferred to precoated ELISA plates to measure TNF-α secretion using kits from Invitrogen. Optical absorbance was measured using a BioTek Synergy HTX multimode microplate reader, and data were interpolated using BioTek Gen5 software.
(§2) The cells were activated with agonistic ligands: […], TLR3 (poly I:C, 2 μg/ml, 24 h), TLR4 (LPS, 10 or 100 ng/ml, 4 h), TLR5 (FLA-ST, 500 ng/ml, 4 h), TLR7 (ORN06/LyoVec, 2 μg/ml, 24 h; and IMQ, 1 μg/ml, 4 h), TLR8 (TL8-506, 2 μg/ml, 24 h) and TLR9 (ODN2395, 1 μM, 4 h) at various concentrations in RAW 264.7 cells, human Daudi cells and THP-1 cells. Data are from at least three independent experiments (n = 3) and statistical differences between the induced case and other cases were analyzed and verified using a one-tailed Student’s t-test (*P < 0.05, **P < 0.01, ***P < 0.001).
(§3) Given the structural similarities among TLR family proteins, achieving high selectivity is challenging. We tested the effects of ETI41 and ETI60 on various surface TLRs to determine their specificity. […] TLRs activate transcription factors, including NF-κB, MAPKs, c-Jun N-terminal kinase (JNK), extracellular signal-regulated kinase (ERK) and IRF7, which regulate cellular functions such as proliferation and apoptosis. Western blot analysis confirmed that ETI41 and ETI60 inhibited IMQ- or ODN2395-induced phosphorylation of MAPKs (p-ERK, p-JNK and p-p38), nuclear translocation of the NF-κB p65 subunit, Iκ-Bα degradation and IRF7 expression in RAW 264.7 cells (Fig. 2a–c and Supplementary Figs. 2 and 3).

Another series has as its target T2, TLR4 (Homo sapiens, UniProt O00206).
T2 construct: in differentiated human THP-1 cells; endogenous in cells; host or cells: differentiated THP-1
The description is as above. The conditions noted are these: 2 and 5 μM, differentiated THP-1, LPS. The procedure: as §1, §2, §3

A short description of series [1]: MTT assay, cell survival in RAW 264.7. The conditions noted are these: mouse, RAW 264.7 cell line, read-out: LC50. The procedure: After 24 h, the supernatant was removed, and 500 μg/ml of 3-[4,5-dimethylthiazol-2-yl]-2,5 diphenyl tetrazolium bromide (MTT) solution (Invivogen) was added. After a 3 h incubation, the supernatant was removed, and DMSO was added to dissolve the formazan dye.
One-tailed paired Student’s t-tests were performed using Microsoft Excel (Microsoft). […] The therapeutic index was calculated as […]. Animal experimental results are expressed as mean ± standard deviation and analyzed using SPSS v.20 (IBM SPSS Statistics). Homogeneity of variance was assessed using Levene’s test.
Data are from at least three independent experiments (n = 3) and statistical differences between the induced case and other cases were analyzed and verified using a one-tailed Student’s t-test (*P < 0.05, **P < 0.01, ***P < 0.001).
Background: Tetrazolium dyes change colour on reduction, which living cells bring about.

Read-outs that look alike come from different tables or passages of the source.

T2 sequence (O00206 24-839): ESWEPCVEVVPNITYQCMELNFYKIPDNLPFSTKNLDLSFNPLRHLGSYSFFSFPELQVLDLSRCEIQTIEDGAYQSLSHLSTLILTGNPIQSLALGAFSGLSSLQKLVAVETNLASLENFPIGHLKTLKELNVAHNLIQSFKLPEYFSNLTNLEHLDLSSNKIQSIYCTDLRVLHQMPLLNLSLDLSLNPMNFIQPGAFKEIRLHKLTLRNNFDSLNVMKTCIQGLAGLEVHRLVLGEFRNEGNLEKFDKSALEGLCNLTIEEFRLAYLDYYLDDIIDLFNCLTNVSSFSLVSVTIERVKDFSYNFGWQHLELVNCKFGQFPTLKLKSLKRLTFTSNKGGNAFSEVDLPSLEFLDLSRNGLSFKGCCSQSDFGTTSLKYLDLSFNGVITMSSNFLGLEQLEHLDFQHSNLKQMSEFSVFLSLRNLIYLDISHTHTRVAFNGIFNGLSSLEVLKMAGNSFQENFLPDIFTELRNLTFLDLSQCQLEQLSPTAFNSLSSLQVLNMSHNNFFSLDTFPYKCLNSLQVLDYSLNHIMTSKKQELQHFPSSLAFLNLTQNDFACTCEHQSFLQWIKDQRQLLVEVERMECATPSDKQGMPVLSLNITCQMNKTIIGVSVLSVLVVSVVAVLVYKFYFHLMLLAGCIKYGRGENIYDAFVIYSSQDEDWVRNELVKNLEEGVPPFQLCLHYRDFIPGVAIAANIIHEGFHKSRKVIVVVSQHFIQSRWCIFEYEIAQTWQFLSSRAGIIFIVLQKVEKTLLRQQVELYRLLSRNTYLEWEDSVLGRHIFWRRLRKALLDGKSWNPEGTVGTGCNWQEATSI
T2 sequence (Q9Y6Y9 19-160 partner): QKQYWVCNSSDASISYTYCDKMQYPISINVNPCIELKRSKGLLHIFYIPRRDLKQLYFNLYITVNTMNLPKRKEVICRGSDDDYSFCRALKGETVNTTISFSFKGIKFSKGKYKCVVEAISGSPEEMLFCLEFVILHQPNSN
T1 sequence (O60602 21-858): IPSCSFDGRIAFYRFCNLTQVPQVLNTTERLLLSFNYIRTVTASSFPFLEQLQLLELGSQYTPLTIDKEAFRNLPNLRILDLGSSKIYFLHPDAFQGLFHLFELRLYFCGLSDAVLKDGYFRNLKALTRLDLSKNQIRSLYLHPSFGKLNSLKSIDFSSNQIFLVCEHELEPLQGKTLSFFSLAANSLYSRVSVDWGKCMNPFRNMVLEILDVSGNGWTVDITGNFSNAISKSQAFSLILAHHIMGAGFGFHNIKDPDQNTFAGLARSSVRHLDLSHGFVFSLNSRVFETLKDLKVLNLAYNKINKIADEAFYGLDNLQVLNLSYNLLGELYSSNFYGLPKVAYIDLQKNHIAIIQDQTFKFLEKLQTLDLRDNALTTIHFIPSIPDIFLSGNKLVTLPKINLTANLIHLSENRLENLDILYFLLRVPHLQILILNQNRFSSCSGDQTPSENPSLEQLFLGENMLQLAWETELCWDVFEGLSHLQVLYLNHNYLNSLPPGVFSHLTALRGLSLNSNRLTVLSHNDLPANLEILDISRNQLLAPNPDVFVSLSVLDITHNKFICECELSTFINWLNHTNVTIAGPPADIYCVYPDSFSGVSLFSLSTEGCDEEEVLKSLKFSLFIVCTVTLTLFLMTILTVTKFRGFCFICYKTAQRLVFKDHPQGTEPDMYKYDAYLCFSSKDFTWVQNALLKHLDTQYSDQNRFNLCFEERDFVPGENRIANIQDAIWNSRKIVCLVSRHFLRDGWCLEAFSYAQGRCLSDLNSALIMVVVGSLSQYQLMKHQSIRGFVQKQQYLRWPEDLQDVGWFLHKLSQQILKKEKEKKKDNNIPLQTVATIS

As for `Cc1cc2c(N)c3c(nc2n1CCCN(C)C)CCCCCC3` [ETI41], in the series with TLR9, the “Endocytosis of CpG ODNs” value is “did not interfere with endocytosis” and the “Fluorescence intensity of labeled CpG ODN after washing” value is listed as “reduction in fluorescence intensity”. In addition, on TLR5, the “Inhibition of TLR5 (TNF-α secretion)” value is listed as “neither compound inhibited”. Further, at TLR4, the “Inhibition of TLR4 (TNF-α secretion)” value is given as “neither compound inhibited”. Further, the CC50 at 24 h in series [1] came to 67.2 µM.
Turning to `COc1ccc2c3c(N)c4c(nc3n(CCCN(C)C)c2c1)CCCC4` [ETI60], in the series on TLR9, the “Endocytosis of CpG ODNs” value is “did not interfere with endocytosis” and the “Fluorescence intensity of labeled CpG ODN after washing” value was “reduction in fluorescence intensity”. Also, the “Inhibition of TLR5 (TNF-α secretion)” value at TLR5 is listed as “neither compound inhibited”. Moreover, the “Inhibition of TLR4 (TNF-α secretion)” value at TLR4 is recorded as “neither compound inhibited”. The CC50 at 24 h in series [1] (RAW 264.7 cells) was found to be 51.2 µM.
